This note sets out measurements from ChEMBL document CHEMBL1201862, “PubChem BioAssay data set” (2004).

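Compound exposure: 48 hours, 5 concentrations, 96-well plates. GI50 marks 50% less growth.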 Calls of active or inactive are those of the source. No stated cut-off is given here; in the data, active = GI50 up to about 1.1 µM and inactive = higher. Bounds are passed on as bounds.

Some test systems named below: CCRF-CEM; DMS-114; DMS-273; EKVX; KM12; LXFL 529; MOLT-4; NCI-H226; SF-295; SNB-78; SR; UACC-257; UACC-62; HOP-18; MCF7; RPMI-8226; UO-31; DU-145; Hs-578T; PC-3.
Test in all cases: NCI tumour cell line growth inhibition, 48 h

For the compound `C/C(=N/NC(N)=S)c1ccc2ccccc2c1`, the GI50 with CCRF-CEM was 22.5 µM (inactive); with DMS-114 it was 17.9 µM (inactive); with DMS-273 it was 24.9 µM (inactive); in the test on EKVX, 0.443 µM (active); in the test with KM12, 9.16 µM (inactive); with LXFL 529, 22.3 µM (inactive). Further, the GI50 was 21.9 µM (inactive) in the test with MOLT-4; 39.8 µM (inactive) with NCI-H226; 29.4 µM (inactive) in the test on SF-295; 45.5 µM (inactive) in the test on SNB-78; 74.5 µM (inactive) in the test with SR; 41.9 µM (inactive) with UACC-257. In the test with UACC-62, the GI50 was 9.42 µM (inactive).
Take `C=CCCCCCCCCC(=O)O` [UNDECYLENIC ACID]: the GI50 in the test with CCRF-CEM was 128 µM (inactive); in the test on DMS-114 it was 135 µM (inactive); in the test on DMS-273 it was 127 µM (inactive); with EKVX, 116 µM (inactive); in the test on HOP-18, 125 µM (inactive); in the test with KM12, 27.7 µM (inactive). Further, the GI50 in the test on MCF7 is 152 µM (inactive); in the test on MOLT-4 it was 110 µM (inactive); in the test on NCI-H226, 155 µM (inactive); with RPMI-8226, 129 µM (inactive); with SF-295, 109 µM (inactive); with SNB-78 it was 106 µM (inactive). The GI50 in the test with UACC-257 was 179 µM (inactive); in the test with UACC-62, 79.8 µM (inactive); in the test on UO-31 it was 80.7 µM (inactive).
On to `CCOc1ccc(NC(=O)C(=O)CC(=O)c2sc(NNC(C)=O)nc2C)cc1`, for which the GI50 was > 100 µM (inactive) in the test on CCRF-CEM; > 100 µM (inactive) in the test with DMS-273; 40.9 µM (inactive) in the test with EKVX; > 100 µM (inactive) in the test on KM12; > 100 µM (inactive) in the test on LXFL 529; > 100 µM (inactive) with MOLT-4. The GI50 with NCI-H226, in the test with RPMI-8226, in the test on SF-295, in the test on SNB-78, with SR and in the test on UACC-257 was > 100 µM (inactive) in each case. For the same compound, the GI50 in the test with UACC-62 and in the test with UO-31 was > 100 µM (inactive) in each case.
With `COC1OC2=CCC3C(=O)NC(=O)C3C2[C@H](OCc2ccccc2)C1OCc1ccccc1` (stereo partly specified), the GI50 is 1.15 µM (inactive) in the test with CCRF-CEM; 1.85 µM (inactive) with EKVX; 3.48 µM (inactive) in the test on HOP-18; 5.9 µM (inactive) in the test on KM12; 1.68 µM (inactive) in the test with LXFL 529; 1.5 µM (inactive) in the test with MOLT-4. Moreover, the GI50 with SF-295 was 18.1 µM (inactive); in the test with SNB-78, 2.03 µM (inactive); in the test with SR it was 2.1 µM (inactive); in the test on UACC-257, 2.09 µM (inactive); in the test with UACC-62, 2.46 µM (inactive); with UO-31, 17.7 µM (inactive).
In the case of `COc1ccc(CN2C(=O)C(=O)N(C)C2=O)c2ccccc12`, the GI50 with CCRF-CEM is > 10 µM (inactive); in the test with DU-145, > 10 µM (inactive); with EKVX, > 10 µM (inactive); with Hs-578T it was 1.55 µM (inactive); with KM12 it was > 10 µM (inactive); in the test on MCF7, > 10 µM (inactive). Further, the GI50 in the test with MOLT-4, in the test on NCI-H226, in the test with PC-3, with RPMI-8226, in the test with SF-295 and in the test with SR was > 10 µM (inactive) throughout. The GI50 in the test with UACC-62 and in the test with UO-31 was > 10 µM (inactive) in each case.
For `COc1ccc(-c2cc3[nH]nc(N)c3c(=O)o2)cc1`, the GI50 in the test on CCRF-CEM is > 100 µM (inactive); in the test on DMS-114, 72.4 µM (inactive); in the test with DMS-273, > 100 µM (inactive); in the test on EKVX it was 14 µM (inactive); in the test on HOP-18, > 100 µM (inactive); in the test on KM12 it was > 100 µM (inactive). The GI50 in the test with LXFL 529, in the test with MOLT-4, in the test with RPMI-8226, with SF-295, in the test on SNB-78 and in the test with SR was > 100 µM (inactive) throughout. Further, the GI50 with UACC-257 and with UO-31 was > 100 µM (inactive) each time.
Consider `CC(=O)OCc1nnn2c1CCC2`, for which the GI50 with CCRF-CEM, with EKVX, in the test on HOP-18, in the test on KM12, in the test on LXFL 529 and with MOLT-4 was > 100 µM (inactive) throughout. In addition, the GI50 in the test on SF-295, in the test with SNB-78, in the test with SR, in the test with UACC-257, in the test on UACC-62 and in the test on UO-31 was > 100 µM (inactive) throughout.
Take `CN(Cc1cnc2nc(N)nc(N)c2n1)c1ccc(C(=O)NC(CCC(=O)O)C(=O)O)cc1C(F)(F)F` (stereo unspecified): the GI50 was < 0.01 µM (active) in the test on CCRF-CEM; < 0.01 µM (active) with DU-145; > 27 µM (inactive) with EKVX; > 72.9 µM (inactive) with Hs-578T; < 0.01 µM (active) in the test on KM12; < 0.01 µM (active) in the test on MCF7. Besides, the GI50 is < 0.01 µM (active) in the test with MOLT-4; < 0.01 µM (active) with PC-3; < 0.01 µM (active) in the test with RPMI-8226; < 0.01 µM (active) in the test with SF-295; < 0.01 µM (active) in the test with SR; 25.8 µM (inactive) in the test with UACC-257. Also, the GI50 with UACC-62 and with UO-31 was < 0.01 µM (active) each time.
Consider `COc1ccc2c(c1)C(=O)/C(=C/c1ccccc1)C2`, for which the GI50 in the test on CCRF-CEM is 11.3 µM (inactive); with DU-145, > 100 µM (inactive); in the test with Hs-578T it was > 100 µM (inactive); in the test with KM12, > 100 µM (inactive); in the test on MCF7, 7.36 µM (inactive); in the test with MOLT-4, 16.3 µM (inactive). Further, the GI50 was 25 µM (inactive) with NCI-H226; 68.9 µM (inactive) in the test on PC-3; 45.7 µM (inactive) in the test on RPMI-8226; > 100 µM (inactive) with SF-295; 76.7 µM (inactive) with SR; 52.6 µM (inactive) with UACC-62. The GI50 in the test with UO-31 was 49.7 µM (inactive).
On to `O=C1C=C(C2OC(CO)C(O)C2O)C(=O)N1` (stereo unspecified), for which the GI50 in the test with CCRF-CEM was 32.5 µM (inactive); with DMS-114, 54.8 µM (inactive); in the test on DMS-273 it was > 100 µM (inactive); in the test on EKVX it was > 100 µM (inactive); with HOP-18 it was > 100 µM (inactive); in the test with KM12, > 100 µM (inactive). Further, the GI50 in the test on MCF7 is > 91.8 µM (inactive); with MOLT-4, 45.6 µM (inactive); with NCI-H226, > 100 µM (inactive); with RPMI-8226, > 51.1 µM (inactive); with SF-295, > 100 µM (inactive); in the test on SNB-78, > 100 µM (inactive). In addition, the GI50 with UACC-257, in the test on UACC-62 and with UO-31 was > 100 µM (inactive) throughout.
